Assay [1] deals with HCV replicon cells. The assay can be described thus: HCV replicon FRET / luciferase assay. It counts as cell-based. Conditions: 50% reduction in FRET or luciferase activity. The procedure: FRET Assay Preparation. The HCV FRET screening assay was performed in 96-well cell culture plates. The FRET peptide (Anaspec, Inc.) (Taliani et al., Anal. Biochem. 1996, 240, 60-67) contains a fluorescence donor, EDANS, near one end of the peptide and an acceptor, DABCYL, near the other end. The fluorescence of the peptide is quenched by […] resonance energy transfer (RET) between the donor and the acceptor, but as the NS3 protease cleaves the peptide the products are released from RET quenching and the fluorescence of the donor becomes apparent. The assay reagent was made as follows: 5× cell Luciferase cell culture lysis reagent from Promega (#E153A) diluted to 1× with dH2O, NaCl added to 150 mM final, the FRET peptide diluted to 20 μM final from a 2 mM stock.
To prepare plates, HCV replicon cells, with or without a Renilla luciferase reporter gene, were trypsinized and plated in a 96-well plate with titrated test compounds added in columns 3 through 12; columns 1 and 2 contained a control compound (HCV control inhibitor), and the bottom row contained cells with DMSO only. The plates were then placed in a CO2 incubator at 37° C.
Assays. Subsequent to addition of the test compounds described above (FRET Assay Preparation), at various times the plate was removed and Alamar blue solution (Trek Diagnostics, #00-100) was added to measure cellular toxicity. After reading in a Cytoflour 4000 instrument (PE Biosystems), plates were rinsed with PBS and then used for FRET assay by the addition of 30 ul of the FRET peptide assay reagent described above (FRET Assay Preparation) per well. The plate was then placed into the Cytoflour 4000 instrument which had been set to 340 excite/490 emission, automatic mode for up to 20 cycles and the plate read in a kinetic mode. Typically, the signal to noise using an endpoint analysis after the reads was at least three-fold. Alternatively, after Alamar blue reading, plates were rinsed with PBS, then used for luciferase assay using the Promega Dual-Glo Luciferase Assay System or the Promega EnduRen Live Cell Substrate assay.
Compound analysis was performed by quantification of the relative HCV replicon inhibition and the relative cytotoxicity values. To calculate cytoxicity values, the average Alamar Blue fluorescence signals from the control wells were set as 100% non-toxic. The individual signals in each of the compound test wells were then divided by the average control signal and multiplied by 100% to determine […]. To calculate the HCV replicon inhibition values, an average background value was obtained from the two wells containing the highest amount of HCV control inhibitor at the end of the assay period. These numbers were similar to those obtained from naïve Huh-7 cells. The background numbers were then subtracted from the average signal obtained from the control wells and this number was used as 100% activity. The individual signals in each of the compound test wells were then divided by the averaged control values after background subtraction and multiplied by 100% to determine percent activity. EC50 values were calculated as the concentration which caused a 50% reduction in FRET or luciferase activity. The two numbers generated for the compound plate, percent cytoxicity and percent activity, were used to determine compounds of interest for further analysis.

Assay [2] deals with T1, HCV NS5B (Hepatitis C virus genotype 1b, UniProt Q9WMX2).
T1 construct: The protein was expressed with an 18 amino acid C-terminal truncation to enhance the solubility; made in house; host or cells: E. coli BL21(DE3), pET21a
T1 sequence (Q9WMX2 2420-2992): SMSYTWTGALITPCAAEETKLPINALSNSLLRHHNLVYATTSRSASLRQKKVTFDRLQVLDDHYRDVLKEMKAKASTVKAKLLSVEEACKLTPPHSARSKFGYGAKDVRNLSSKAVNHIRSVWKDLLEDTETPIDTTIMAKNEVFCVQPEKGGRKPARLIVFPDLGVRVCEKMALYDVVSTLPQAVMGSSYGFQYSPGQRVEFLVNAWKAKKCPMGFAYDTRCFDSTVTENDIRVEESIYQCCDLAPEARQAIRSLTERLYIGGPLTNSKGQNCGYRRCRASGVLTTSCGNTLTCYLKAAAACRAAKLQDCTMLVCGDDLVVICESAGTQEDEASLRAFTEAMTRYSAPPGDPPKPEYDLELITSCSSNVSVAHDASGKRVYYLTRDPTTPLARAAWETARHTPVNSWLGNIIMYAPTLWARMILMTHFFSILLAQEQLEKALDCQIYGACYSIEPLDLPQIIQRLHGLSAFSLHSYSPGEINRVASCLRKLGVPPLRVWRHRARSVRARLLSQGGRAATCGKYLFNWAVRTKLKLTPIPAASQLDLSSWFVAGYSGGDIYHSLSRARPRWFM
Description: HCV NS5B RdRp enzyme assay (standard or modified). It counts as biochemical. The conditions noted are these: HCV NS5B RdRp genotype 1b enzyme; standard or modified assay not stated. The procedure: HCV NS5B RdRp cloning, expression, and purification. The cDNA encoding the NS5B protein of HCV, genotype 1b, was cloned into the pET21a expression vector. The protein was expressed with an 18 amino acid C-terminal truncation to enhance the solubility. The E. coli competent cell line BL21(DE3) was used for expression of the protein. Cultures were grown at 37° C. for ˜4 hours until the cultures reached an optical density of 2.0 at 600 nm. The cultures were cooled to 20° C. and induced with 1 mM IPTG. Fresh ampicillin was added to a final concentration of 50 μg/ml and the cells were grown overnight at 20° C.
Cell pellets (3 L) were lysed for purification to yield 15-24 mgs of purified NS5B. The lysis buffer consisted of 20 mM Tris-HCl, pH 7.4, 500 mM NaCl, 0.5% triton X-100, 1 mM DTT, 1 mM EDTA, 20% glycerol, 0.5 mg/ml lysozyme, 10 mM MgCl2, 15 ug/ml deoxyribonuclease I, and Complete TM protease inhibitor tablets (Roche). After addition of the lysis buffer, frozen cell pellets were resuspended using a tissue homogenizer. To reduce the viscosity of the sample, aliquots of the lysate were sonicated on ice using a microtip attached to a Branson sonicator. The sonicated lysate was centrifuged at 100,000×g for 1 hr at 4° C. and filtered through a 0.2 μm filter unit (Corning).
The protein was purified using two sequential chromatography steps: Heparin sepharose CL-6B and polyU sepharose 4B (Pharmacia). The chromatography buffers were identical to the lysis buffer but contained no lysozyme, deoxyribonuclease I, MgCl2 or protease inhibitor and the NaCl concentration of the buffer was adjusted according to the requirements for charging the protein onto the column. Each column was eluted with a NaCl gradient which varied in length from 5-50 column volumes depending on the column type. After the final chromatography step, the resulting purity of the enzyme is >90% based on SDS-PAGE analysis. The enzyme was aliquoted and stored at −80° C.
Standard HCV NS5B RdRp enzyme assay. HCV RdRp genotype 1b assays were run in a final volume of 60 μl in 96 well plates (Corning 3600). The assay buffer is composed of 20 mM Hepes, pH 7.5, 2.5 mM KCl, 2.5 mM MgCl2, 1 mM DTT, 1.6 U RNAse inhibitor (Promega N2515), 0.01 mg/ml BSA (Sigma B6917), and 2% glycerol. All compounds were serially diluted (3-fold) in DMSO and diluted further in water such that the final concentration of DMSO in the assay was 2%. HCV RdRp genotype 1b enzyme was used at a final concentration of 28 nM. A polyA template was used at 6 nM, and a biotinylated oligo-dT12 primer was used at 180 nM final concentration. Template was obtained commercially (Amersham 27-4110). Biotinylated primer was prepared by Sigma Genosys. 3H-UTP was used at 0.6 μCi (0.29 μM total UTP). Reactions were initiated by the addition of enzyme, incubated at 30° C. for 60 min, and stopped by adding 25 μl of 50 mM EDTA containing SPA beads (4 μg/μl, Amersham RPNQ 0007). Plates were read on a Packard Top Count NXT after >1 hr incubation at room temperature.
Modified HCV NS5B RdRp enzyme assay. A modified enzyme assay was performed essentially as described for the standard enzyme assay except for the following: The biotinylated oligo dT12 primer was precaptured on streptavidin-coated SPA beads by mixing primer and beads in assay buffer and incubating at room temperature for one hour. Unbound primer was removed after centrifugation. The primer-bound beads were resuspended in 20 mM Hepes buffer, pH 7.5 and used in the assay at final concentrations of 20 nM primer and 0.67 μg/μl beads. Order of addition in the assay: enzyme (1.75 nM) was added to diluted compound followed by the addition of a mixture of template (0.36 nM), 3H-UTP (0.6 μCi, 0.29 μM), and primer-bound beads, to initiate the reaction; concentrations given are final. Reactions were allowed to proceed for 4 hours at 30° C.
IC50 values for compounds were determined using seven different [I]. […]

In general, EC50 refers to the concentration needed to bring the measured effect to its halfway point. A high value points to a less potent agent. As usually defined, the IC50 is the concentration at which inhibition is half-maximal. The low end stands for higher potency, the high end for lower potency.

In assay [1] (Hepatitis C virus), `COc1ccc2c(c1)C1CC1(C(=O)N1CC3CN(C(=O)N4CCCC4)CC3C1)Cn1c-2c(C2CCCCC2)c2ccc(C(=O)NS(=O)(=O)N(C)C)cc21` (stereo not drawn) returned a 50% effective concentration (EC50) of 4.58 to 500 nM. In addition, the IC50 in assay [2] was in the range of 4.58 to 500 nM.
`COc1ccc2c(c1)C1CC1(C(=O)N1CCN3CCCC3C1)Cn1c-2c(C2CCCCC2)c2ccc(C(=O)NS(=O)(=O)N3CCC3)cc21` (stereo not drawn) displayed a concentration giving a half-maximal response (EC50) in assay [1] (Hepatitis C virus) of 4.58 to 500 nM. The compound further showed an IC50 in assay [2] of 4.58 to 500 nM.
`COc1ccc2c(c1)C1CC1(C(=O)N1C[C@@H]3CCCN3C[C@@H]1Cc1ccccc1)Cn1c-2c(C2CCCCC2)c2ccc(C(=O)NS(=O)(=O)N(C)C)cc21` (stereo partly drawn) returned an EC50 in assay [1] (Hepatitis C virus) of 4.58 to 500 nM. The compound also came in with an IC50 in assay [2] of 4.58 to 500 nM.
`COc1ccc2c(c1)C1CC1(C(=O)N1CC3CN(C)CC3C1)Cn1c-2c(C2CCCCC2)c2ccc(C(=O)NS(=O)(=O)N(C)C)cc21` (stereo not drawn) returned an EC50 in assay [1] (Hepatitis C virus) of 4.58 to 500 nM. Besides, the IC50 in assay [2] was in the range of 4.58 to 500 nM.
As for `COc1ccc2c(c1)C1CC1(C(=O)N1CC3CCCN(C(C)=O)C3C1)Cn1c-2c(C2CCCCC2)c2ccc(C(=O)NS(=O)(=O)N(C)C)cc21` (stereo not drawn) [drawing 36], the EC50 in assay [1] was 4.58 to 500 nM. In assay [2], this compound showed an IC50 of 4.58 to 500 nM.
As to `COc1ccc2c(c1)C1CC1(C(=O)N1CCN3CCC[C@@H]3C1)Cn1c-2c(C2CCCCC2)c2ccc(C(=O)NS(=O)(=O)N3CCC3)cc21` (stereo partly drawn), the 50% effective concentration (EC50) in assay [1] (Hepatitis C virus) was 4.58 to 500 nM. Further, the concentration for half-maximal inhibition (IC50) in assay [2] lay in the range of 4.58 to 500 nM.
In the case of `COc1ccc2c(c1)C1CC1(C(=O)N1CC3CCCN(C(=O)OC(C)(C)C)C3C1)Cn1c-2c(C2CCCCC2)c2ccc(C(=O)NS(=O)(=O)C3CC3)cc21` (stereo not drawn), the EC50 in assay [1] (Hepatitis C virus) lay in the range of 4.58 to 500 nM. This compound also showed an IC50 in assay [2] of 4.58 to 500 nM.
In the case of `COc1ccc2c(c1)C1CC1(C(=O)N1CC3CCCN(C(=O)OC(C)(C)C)C3C1)Cn1c-2c(C2CCCCC2)c2ccc(C(=O)NS(=O)(=O)N(C)C)cc21` (stereo not drawn) [drawing 20], in assay [1], the EC50 was 4.58 to 500 nM. In assay [2], this compound had a half-inhibitory concentration (IC50) of 4.58 to 500 nM.
Take `COc1ccc2c(c1)C1CC1(C(=O)N1CCN3CCC[C@@H]3C1)Cn1c-2c(C2CCCCC2)c2ccc(C(=O)NS(=O)(=O)C3CC3)cc21` (stereo partly drawn): in assay [1] (Hepatitis C virus), the EC50 lay within 4.58 to 500 nM. Moreover, in assay [2], the IC50 lay in the range of 4.58 to 500 nM.
For `CNC(=O)N1CCCC2CN(C(=O)C34CC3c3cc(OC)ccc3-c3c(C5CCCCC5)c5ccc(C(=O)NS(=O)(=O)N(C)C)cc5n3C4)CC21` (stereo not drawn), in assay [1] (Hepatitis C virus), the 50% effective concentration (EC50) is 4.58 to 500 nM. The same compound came in with an IC50 in assay [2] of 4.58 to 500 nM.
`COc1ccc2c(c1)C1CC1(C(=O)N1C[C@@H]3CCCN3C[C@@H]1CC(C)C)Cn1c-2c(C2CCCCC2)c2ccc(C(=O)NS(=O)(=O)N(C)C)cc21` (stereo partly drawn): the EC50 in assay [1] (Hepatitis C virus) is 4.58 to 500 nM. The concentration for half-maximal inhibition (IC50) in assay [2] lay in the range of 4.58 to 500 nM.
`COc1ccc2c(c1)C1CC1(C(=O)N1CC3CN(C)CC3C1)Cn1c-2c(C2CCCCC2)c2ccc(C(=O)NS(=O)(=O)C3CC3)cc21` (stereo not drawn) had an EC50 in assay [1] (Hepatitis C virus) of 4.58 to 500 nM. In assay [2], this compound had a 50% inhibitory concentration (IC50) of 4.58 to 500 nM.
`COc1ccc2c(c1)C1CC1(C(=O)N1C[C@H]3CN(Cc4ccccc4)C[C@H]3C1)Cn1c-2c(C2CCCCC2)c2ccc(C(=O)NS(=O)(=O)N(C)C)cc21` (stereo partly drawn): in assay [1] (Hepatitis C virus), the half-maximal effective concentration (EC50) is 4.58 to 500 nM. This compound returned an IC50 in assay [2] of 4.58 to 500 nM.
In assay [1] (Hepatitis C virus), `CCS(=O)(=O)NC(=O)c1ccc2c(C3CCCCC3)c3n(c2c1)CC1(C(=O)N2CCN4CCCC4C2)CC1c1cc(OC)ccc1-3` (stereo not drawn) gave an EC50 of 4.58 to 500 nM. Moreover, the IC50 in assay [2] is 4.58 to 500 nM.
Take `COc1ccc2c(c1)[C@@H]1C[C@]1(C(=O)N1CC3CCCN(C(C)=O)C3C1)Cn1c-2c(C2CCCCC2)c2ccc(C(=O)NS(=O)(=O)N(C)C)cc21` (stereo partly drawn) [drawing 72]: the EC50 in assay [1] (Hepatitis C virus) is 4.58 to 500 nM. Further, the IC50 in assay [2] was 4.58 to 500 nM.
`COc1ccc2c(c1)C1CC1(C(=O)N1CCN3CCCC3C1C)Cn1c-2c(C2CCCCC2)c2ccc(C(=O)NS(=O)(=O)N(C)C)cc21` (stereo not drawn) showed a concentration giving a half-maximal response (EC50) in assay [1] (Hepatitis C virus) of 4.58 to 500 nM. Also, the concentration for half-maximal inhibition (IC50) in assay [2] was 4.58 to 500 nM.
On to `COc1ccc2c(c1)C1CC1(C(=O)N1CC3CCCN(C)C3C1)Cn1c-2c(C2CCCCC2)c2ccc(C(=O)NS(=O)(=O)N(C)C)cc21` (stereo not drawn), for which the half-maximal effective concentration (EC50) in assay [1] (Hepatitis C virus) lay in the range of 4.58 to 500 nM. This compound also displayed an IC50 in assay [2] of 4.58 to 500 nM.
As for `COc1ccc2c(c1)C1CC1(C(=O)N1CCN3CCCC3C1)Cn1c-2c(C2CCCCC2)c2ccc(C(=O)NS(=O)(=O)C3CC3)cc21` (stereo not drawn), the concentration giving a half-maximal response (EC50) in assay [1] (Hepatitis C virus) lay within 4.58 to 500 nM. In assay [2], this compound had an IC50 of 4.58 to 500 nM.

For the origin of these results see US7521444B2, “Compounds for the treatment of hepatitis C” (Bristol-Myers Squibb Company, priority 2007, dated 2009).
